# In PubChem BioAssay AID1259407 (Chemical Carcinogenesis Research Information System (CCRIS), 2018):
# The source made the active and inactive calls. The rule behind the calls is not given here.
# System: CCRIS mutagenicity, Ames/micronucleus/aberration tests
# Experiment: CCRIS mutagenicity studies
# [1] = Test System: AMES SALMONELLA TYPHIMURIUM, Strain/Indicator: TA100, Metabolic Activation: NONE, Method: STANDARD PLATE
# [2] = Test System: AMES SALMONELLA TYPHIMURIUM, Strain/Indicator: TA1535, Metabolic Activation: NONE, Method: STANDARD PLATE
# [3] = Test System: AMES SALMONELLA TYPHIMURIUM, Strain/Indicator: TA1535, Metabolic Activation: RAT, LIVER, S-9, AROCLOR 1254, Method: STANDARD PLATE
# [4] = Test System: MOUSE LYMPHOMA, Strain/Indicator: L5178Y (TK+/TK-), Metabolic Activation: RAT, LIVER, S-9, AROCLOR 1254, Method: SUSPENSION/PLATE
# [5] = Test System: AMES SALMONELLA TYPHIMURIUM, Strain/Indicator: TA98, Metabolic Activation: NONE, Method: STANDARD PLATE
# [6] = Test System: AMES SALMONELLA TYPHIMURIUM, Strain/Indicator: TA98, Metabolic Activation: NONE, Method: PREINCUBATION
# [7] = Test System: AMES SALMONELLA TYPHIMURIUM, Strain/Indicator: TA98, Metabolic Activation: RAT, LIVER, S-9, AROCLOR 1254, Method: STANDARD PLATE
# [8] = Test System: AMES SALMONELLA TYPHIMURIUM, Strain/Indicator: TA100, Metabolic Activation: NONE, Method: PREINCUBATION
structure (smiles),measurement,setting,value
Nc1ncn([C@@H]2O[C@H](CO)[C@@H](O)[C@H]2O)c(=O)n1,mutagenic call,"End Point: IN VITRO CHROMOSOMAL ABERRATIONS, Test System: CHO CELLS (K1), Metabolic Activation: NONE",active; positive
same,mutagenic call,"End Point: IN VITRO CHROMOSOMAL ABERRATIONS, Test System: CHO CELLS (XRS-5), Metabolic Activation: NONE",active; positive
same,mutagenic call,"Test System: AMES SALMONELLA TYPHIMURIUM, Strain/Indicator: TA92, Metabolic Activation: NONE, Method: STANDARD PLATE",active; positive
same,mutagenic call,"Test System: AMES SALMONELLA TYPHIMURIUM, Strain/Indicator: TA98, Metabolic Activation: NONE, Method: FLUCTUATION (MICROTITER)",active; positive
same,mutagenic call,[1],active; positive
same,mutagenic call,"Test System: AMES SALMONELLA TYPHIMURIUM, Strain/Indicator: TA102, Metabolic Activation: NONE, Method: STANDARD PLATE",active; positive
same,mutagenic call,"Test System: AMES SALMONELLA TYPHIMURIUM, Strain/Indicator: TA104, Metabolic Activation: NONE, Method: STANDARD PLATE",active; positive
same,mutagenic call,[2],active; positive
same,mutagenic call,[3],active; positive
same,mutagenic call,"Test System: AMES SALMONELLA TYPHIMURIUM, Strain/Indicator: TA1537, Metabolic Activation: NONE, Method: FLUCTUATION (MICROTITER)",inactive; negative
same,mutagenic call,"Test System: AMES SALMONELLA TYPHIMURIUM, Strain/Indicator: TA2638, Metabolic Activation: NONE, Method: STANDARD PLATE",active; positive
same,mutagenic call,"Test System: AMES SALMONELLA TYPHIMURIUM, Strain/Indicator: TA2640, Metabolic Activation: NONE, Method: STANDARD PLATE",inactive; negative
same,mutagenic call,"Test System: AMES SALMONELLA TYPHIMURIUM, Strain/Indicator: TA7001, Metabolic Activation: NONE, Method: FLUCTUATION (MICROTITER)",inactive; negative
same,mutagenic call,"Test System: AMES SALMONELLA TYPHIMURIUM, Strain/Indicator: TA7002, Metabolic Activation: NONE, Method: FLUCTUATION (MICROTITER)",inactive; negative
same,mutagenic call,"Test System: AMES SALMONELLA TYPHIMURIUM, Strain/Indicator: TA7003, Metabolic Activation: NONE, Method: FLUCTUATION (MICROTITER)",inactive; negative
same,mutagenic call,"Test System: AMES SALMONELLA TYPHIMURIUM, Strain/Indicator: TA7004, Metabolic Activation: NONE, Method: FLUCTUATION (MICROTITER)",active; positive
same,mutagenic call,"Test System: AMES SALMONELLA TYPHIMURIUM, Strain/Indicator: TA7005, Metabolic Activation: NONE, Method: FLUCTUATION (MICROTITER)",inactive; negative
same,mutagenic call,"Test System: AMES SALMONELLA TYPHIMURIUM, Strain/Indicator: TA7006, Metabolic Activation: NONE, Method: FLUCTUATION (MICROTITER)",active; positive
same,mutagenic call,"Test System: CHINESE HAMSTER OVARY, Strain/Indicator: CHO-AS52/6-THIOGUANINE, Metabolic Activation: NONE",active; positive
same,mutagenic call,"Test System: MOUSE LYMPHOMA, Strain/Indicator: L5178Y (TK+/TK-), Metabolic Activation: RAT, LIVER, HEAT-DENATURED S-9, Method: SUSPENSION/PLATE",active; positive
same,mutagenic call,[4],active; positive. reevaluation of results: inconclusive
same,mutagenic call,"Test System: MOUSE LYMPHOMA, Strain/Indicator: L5178Y (TK+/TK-), Metabolic Activation: RAT, LIVER, S-9, Method: SUSPENSION/PLATE",active; positive
O=Nc1ccc(Oc2ccccc2)cc1,mutagenic call,[5],active; positive
same,mutagenic call,"Test System: AMES SALMONELLA TYPHIMURIUM, Strain/Indicator: TA100, Metabolic Activation: GUINEA PIG, LIVER, S-9, KANECLOR 500, Method: STANDARD PLATE",active; positive
[O]=[Zr],mutagenic call,"Test System: AMES SALMONELLA TYPHIMURIUM, Strain/Indicator: TA98, Metabolic Activation: HAMSTER, LIVER, S-9, AROCLOR 1254 (10%), Method: PREINCUBATION",inactive; negative
same,mutagenic call,"Test System: AMES SALMONELLA TYPHIMURIUM, Strain/Indicator: TA98, Metabolic Activation: HAMSTER, LIVER, S-9, AROCLOR 1254, Method: STANDARD PLATE",inactive; negative
same,mutagenic call,[6],inactive; negative
same,mutagenic call,[5],inactive; negative
same,mutagenic call,"Test System: AMES SALMONELLA TYPHIMURIUM, Strain/Indicator: TA98, Metabolic Activation: RAT, LIVER, S-9, AROCLOR 1254 (10%), Method: PREINCUBATION",inactive; negative
same,mutagenic call,[7],inactive; negative
same,mutagenic call,"Test System: AMES SALMONELLA TYPHIMURIUM, Strain/Indicator: TA100, Metabolic Activation: HAMSTER, LIVER, S-9, AROCLOR 1254 (10%), Method: PREINCUBATION",inactive; negative
same,mutagenic call,"Test System: AMES SALMONELLA TYPHIMURIUM, Strain/Indicator: TA100, Metabolic Activation: HAMSTER, LIVER, S-9, AROCLOR 1254, Method: STANDARD PLATE",inactive; negative
same,mutagenic call,[8],inactive; negative
same,mutagenic call,[1],inactive; negative
same,mutagenic call,"Test System: AMES SALMONELLA TYPHIMURIUM, Strain/Indicator: TA100, Metabolic Activation: RAT, LIVER, S-9, AROCLOR 1254 (10%), Method: PREINCUBATION",inactive; negative
same,mutagenic call,"Test System: AMES SALMONELLA TYPHIMURIUM, Strain/Indicator: TA100, Metabolic Activation: RAT, LIVER, S-9, AROCLOR 1254, Method: STANDARD PLATE",inactive; negative
same,mutagenic call,"Test System: AMES SALMONELLA TYPHIMURIUM, Strain/Indicator: TA1535, Metabolic Activation: HAMSTER, LIVER, S-9, AROCLOR 1254 (10%), Method: PREINCUBATION",inactive; negative
same,mutagenic call,"Test System: AMES SALMONELLA TYPHIMURIUM, Strain/Indicator: TA1535, Metabolic Activation: HAMSTER, LIVER, S-9, AROCLOR 1254, Method: STANDARD PLATE",inactive; negative
same,mutagenic call,"Test System: AMES SALMONELLA TYPHIMURIUM, Strain/Indicator: TA1535, Metabolic Activation: NONE, Method: PREINCUBATION",inactive; negative
same,mutagenic call,[2],inactive; negative
same,mutagenic call,"Test System: AMES SALMONELLA TYPHIMURIUM, Strain/Indicator: TA1535, Metabolic Activation: RAT, LIVER, S-9, AROCLOR 1254 (10%), Method: PREINCUBATION",inactive; negative
same,mutagenic call,[3],inactive; negative
same,mutagenic call,"Test System: AMES SALMONELLA TYPHIMURIUM, Strain/Indicator: TA1537, Metabolic Activation: HAMSTER, LIVER, S-9, AROCLOR 1254 (10%), Method: PREINCUBATION",inactive; negative
same,mutagenic call,"Test System: AMES SALMONELLA TYPHIMURIUM, Strain/Indicator: TA1537, Metabolic Activation: HAMSTER, LIVER, S-9, AROCLOR 1254, Method: STANDARD PLATE",inactive; negative
same,mutagenic call,"Test System: AMES SALMONELLA TYPHIMURIUM, Strain/Indicator: TA1537, Metabolic Activation: NONE, Method: PREINCUBATION",inactive; negative
same,mutagenic call,"Test System: AMES SALMONELLA TYPHIMURIUM, Strain/Indicator: TA1537, Metabolic Activation: NONE, Method: STANDARD PLATE",inactive; negative
same,mutagenic call,"Test System: AMES SALMONELLA TYPHIMURIUM, Strain/Indicator: TA1537, Metabolic Activation: RAT, LIVER, S-9, AROCLOR 1254 (10%), Method: PREINCUBATION",inactive; negative
same,mutagenic call,"Test System: AMES SALMONELLA TYPHIMURIUM, Strain/Indicator: TA1537, Metabolic Activation: RAT, LIVER, S-9, AROCLOR 1254, Method: STANDARD PLATE",inactive; negative
same,mutagenic call,"Test System: AMES SALMONELLA TYPHIMURIUM, Strain/Indicator: TA1538, Metabolic Activation: HAMSTER, LIVER, S-9, AROCLOR 1254, Method: STANDARD PLATE",inactive; negative
same,mutagenic call,"Test System: AMES SALMONELLA TYPHIMURIUM, Strain/Indicator: TA1538, Metabolic Activation: NONE, Method: STANDARD PLATE",inactive; negative
same,mutagenic call,"Test System: AMES SALMONELLA TYPHIMURIUM, Strain/Indicator: TA1538, Metabolic Activation: RAT, LIVER, S-9, AROCLOR 1254, Method: STANDARD PLATE",inactive; negative
same,mutagenic call,"Test System: MOUSE LYMPHOMA, Strain/Indicator: L5178Y (TK+/TK-), Metabolic Activation: NONE, Method: SUSPENSION/PLATE",inactive; negative. reevaluation of results: negative
same,mutagenic call,[4],inactive; negative. reevaluation of results: negative
CC(=O)Nc1cc2c(cc1OC(C)=O)-c1ccccc1C2,mutagenic call,[7],inactive; negative
Cc1c(N)cccc1N=[N+]([O-])c1cccc(N)c1C,mutagenic call,[6],inactive; negative
same,mutagenic call,"Test System: AMES SALMONELLA TYPHIMURIUM, Strain/Indicator: TA98, Metabolic Activation: RAT, LIVER, S-9, PHENOBARBITAL AND 5,6-BENZOFLAVONE, Method: PREINCUBATION",active; positive
same,mutagenic call,[8],inactive; negative
same,mutagenic call,"Test System: AMES SALMONELLA TYPHIMURIUM, Strain/Indicator: TA100, Metabolic Activation: RAT, LIVER, S-9, PHENOBARBITAL AND 5,6-BENZOFLAVONE, Method: PREINCUBATION",inactive; negative
